How the values were obtained:
Format in all cases: functional
Avena sterilis [1] = assay: Herbicidal activity against Avena sterilis accession P09 assessed as weed survival at 1 times field recommended herbicide dose
Avena sterilis [2] = assay: Herbicidal activity against Avena sterilis accession P11 assessed as weed survival at 1 times field recommended herbicide dose
Avena sterilis [3] = assay: Herbicidal activity against Avena sterilis accession P08 assessed as weed survival at 1 times field recommended herbicide dose
Avena sterilis [4] = assay: Herbicidal activity against Avena sterilis accession P18 assessed as weed survival at 32 times field recommended herbicide dose
Avena sterilis [5] = assay: Herbicidal activity against Avena sterilis accession P17 assessed as weed survival at 32 times field recommended herbicide dose
Avena sterilis [6] = assay: Herbicidal activity against Avena sterilis accession P05 assessed as weed survival at 1 times field recommended herbicide dose
Avena sterilis [7] = assay: Herbicidal activity against Avena sterilis accession P02 assessed as weed survival at 1 times field recommended herbicide dose
Avena sterilis [8] = assay: Herbicidal activity against Avena sterilis accession P21S assessed as induction of weed mortality
Avena sterilis [9] = assay: Herbicidal activity against Avena sterilis accession P19S assessed as induction of weed mortality
Avena sterilis [10] = assay: Herbicidal activity against Avena sterilis accession P13S assessed as induction of weed mortality
Avena sterilis [11] = assay: Herbicidal activity against Avena sterilis accession P22 assessed as induction of weed mortality
Avena sterilis [12] = assay: Herbicidal activity against Avena sterilis accession P20 assessed as induction of weed mortality
Avena sterilis [13] = assay: Herbicidal activity against Avena sterilis accession P17 assessed as induction of weed mortality
Avena sterilis [14] = assay: Herbicidal activity against Avena sterilis accession P15 assessed as induction of weed mortality
Avena sterilis [15] = assay: Herbicidal activity against Avena sterilis accession P14 assessed as induction of weed mortality
Avena sterilis [16] = assay: Herbicidal activity against Avena sterilis accession P08 assessed as induction of weed mortality
Avena sterilis [17] = assay: Herbicidal activity against Avena sterilis accession P04 assessed as induction of weed mortality
Avena sterilis [18] = assay: Herbicidal activity against Avena sterilis accession P03 assessed as induction of weed mortality
Avena sterilis [19] = assay: Herbicidal activity against Avena sterilis accession P17 assessed as weed survival at 8 times field recommended herbicide dose
Avena sterilis [20] = assay: Herbicidal activity against Avena sterilis accession P15 assessed as weed survival at 8 times field recommended herbicide dose
Avena sterilis [21] = assay: Herbicidal activity against Avena sterilis accession P12 assessed as weed survival at 8 times field recommended herbicide dose
Avena sterilis [22] = assay: Herbicidal activity against Avena sterilis accession P14 assessed as weed survival at 32 times field recommended herbicide dose
Avena sterilis [23] = assay: Herbicidal activity against Avena sterilis accession P12 assessed as weed survival at 32 times field recommended herbicide dose
Avena sterilis [24] = assay: Herbicidal activity against Avena sterilis accession P11 assessed as weed survival at 32 times field recommended herbicide dose
Avena sterilis [25] = assay: Herbicidal activity against Avena sterilis accession P09 assessed as weed survival at 32 times field recommended herbicide dose
Avena sterilis [26] = assay: Herbicidal activity against Avena sterilis accession P08 assessed as weed survival at 32 times field recommended herbicide dose
Avena sterilis [27] = assay: Herbicidal activity against Avena sterilis accession P05 assessed as weed survival at 32 times field recommended herbicide dose
Avena sterilis [28] = assay: Herbicidal activity against Avena sterilis accession P03 assessed as weed survival at 32 times field recommended herbicide dose
Avena sterilis [29] = assay: Herbicidal activity against Avena sterilis accession P01 assessed as weed survival at 32 times field recommended herbicide dose
Avena sterilis [30] = assay: Herbicidal activity against Avena sterilis accession P13S assessed as weed survival at 1/16 times field recommended herbicide dose
Avena sterilis [31] = assay: Herbicidal activity against Avena sterilis accession P10S assessed as weed survival at 1/16 times field recommended herbicide dose
Avena sterilis [32] = assay: Herbicidal activity against Avena sterilis accession P20 assessed as weed survival at 16 times field recommended herbicide dose
Avena sterilis [33] = assay: Herbicidal activity against Avena sterilis accession P14 assessed as weed survival at 16 times field recommended herbicide dose
Avena sterilis [34] = assay: Herbicidal activity against Avena sterilis accession P07 assessed as weed survival at 16 times field recommended herbicide dose
Avena sterilis [35] = assay: Herbicidal activity against Avena sterilis accession P05 assessed as weed survival at 16 times field recommended herbicide dose
Avena sterilis [36] = assay: Herbicidal activity against Avena sterilis accession P04 assessed as weed survival at 16 times field recommended herbicide dose
Avena sterilis [37] = assay: Herbicidal activity against Avena sterilis accession P03 assessed as weed survival at 16 times field recommended herbicide dose
Avena sterilis [38] = assay: Herbicidal activity against Avena sterilis accession P01 assessed as weed survival at 16 times field recommended herbicide dose
Avena sterilis [39] = assay: Herbicidal activity against Avena sterilis accession P19S assessed as weed survival at 1/8 times field recommended herbicide dose
Avena sterilis [40] = assay: Herbicidal activity against Avena sterilis accession P13S assessed as weed survival at 1/8 times field recommended herbicide dose
Avena sterilis [41] = assay: Herbicidal activity against Avena sterilis accession P08 assessed as weed survival at 8 times field recommended herbicide dose
Avena sterilis [42] = assay: Herbicidal activity against Avena sterilis accession P03 assessed as weed survival at 8 times field recommended herbicide dose
Avena sterilis [43] = assay: Herbicidal activity against Avena sterilis accession P02 assessed as weed survival at 8 times field recommended herbicide dose
Avena sterilis [44] = assay: Herbicidal activity against Avena sterilis accession P01 assessed as weed survival at 8 times field recommended herbicide dose
Avena sterilis [45] = assay: Herbicidal activity against Avena sterilis accession P13S assessed as weed survival at 1/4 times field recommended herbicide dose
Avena sterilis [46] = assay: Herbicidal activity against Avena sterilis accession P10S assessed as weed survival at 1/4 times field recommended herbicide dose
Avena sterilis [47] = assay: Herbicidal activity against Avena sterilis accession P20 assessed as weed survival at 4 times field recommended herbicide dose
Avena sterilis [48] = assay: Herbicidal activity against Avena sterilis accession P17 assessed as weed survival at 4 times field recommended herbicide dose
Avena sterilis [49] = assay: Herbicidal activity against Avena sterilis accession P16 assessed as weed survival at 4 times field recommended herbicide dose
Avena sterilis [50] = assay: Herbicidal activity against Avena sterilis accession P15 assessed as weed survival at 4 times field recommended herbicide dose
Avena sterilis [51] = assay: Herbicidal activity against Avena sterilis accession P12 assessed as weed survival at 4 times field recommended herbicide dose
Avena sterilis [52] = assay: Herbicidal activity against Avena sterilis accession P09 assessed as weed survival at 4 times field recommended herbicide dose
Avena sterilis [53] = assay: Herbicidal activity against Avena sterilis accession P20 assessed as weed survival at 1 times field recommended herbicide dose
Avena sterilis [54] = assay: Herbicidal activity against Avena sterilis accession P04 assessed as weed survival at 4 times field recommended herbicide dose
Avena sterilis [55] = assay: Herbicidal activity against Avena sterilis accession P03 assessed as weed survival at 4 times field recommended herbicide dose
Avena sterilis [56] = assay: Herbicidal activity against Avena sterilis accession P02 assessed as weed survival at 4 times field recommended herbicide dose
Avena sterilis [57] = assay: Herbicidal activity against Avena sterilis accession P10S assessed as weed survival at 1 times field recommended herbicide dose
Avena sterilis [58] = assay: Herbicidal activity against Avena sterilis accession P22 assessed as weed survival at 1 times field recommended herbicide dose

## COC(=O)C(C)Oc1ccc(Oc2ccc(Cl)cc2Cl)cc1 (stereo unspecified) [DICLOFOP-METHYL]
Avena sterilis [1]
  Survival: 100%
Avena sterilis [2]
  Survival: 100%
Avena sterilis [3]
  Survival: 97%
Avena sterilis [4]
  Survival: 40%
Avena sterilis [5]
  Survival: 20%
Avena sterilis [6]
  Survival: 100%
Avena sterilis [7]
  Survival: 100%
Avena sterilis [8]
  GR50: 418 gAi/ha
Avena sterilis [9]
  GR50: 451 gAi/ha
Avena sterilis [10]
  GR50: 509 gAi/ha
Avena sterilis [11]
  GR50: 3989 gAi/ha
Avena sterilis [12]
  GR50: >22740 gAi/ha
Avena sterilis [13]
  GR50: 8389 gAi/ha
Avena sterilis [14]
  GR50: >22740 gAi/ha
Avena sterilis [15]
  GR50: 11045 gAi/ha
Avena sterilis [16]
  GR50: 11354 gAi/ha
Avena sterilis [17]
  GR50: 14196 gAi/ha
Avena sterilis [18]
  GR50: 13359 gAi/ha
Avena sterilis [19]
  Survival: 60%
Avena sterilis [20]
  Survival: 80%
Avena sterilis [21]
  Survival: 80%
Avena sterilis [22]
  Survival: 37%
Avena sterilis [23]
  Survival: 63%
Avena sterilis [24]
  Survival: 63%
Avena sterilis [25]
  Survival: 40%
Avena sterilis [26]
  Survival: 33%
Avena sterilis [27]
  Survival: 20%
Avena sterilis [28]
  Survival: 40%
Avena sterilis [29]
  Survival: 50%
Avena sterilis [30]
  Survival: 90%
Avena sterilis [31]
  Survival: 97%
Avena sterilis [32]
  Survival: 80%
Avena sterilis [33]
  Survival: 50%
Avena sterilis [34]
  Survival: 20%
Avena sterilis [35]
  Survival: 20%
Avena sterilis [36]
  Survival: 53%
Avena sterilis [37]
  Survival: 53%
Avena sterilis [38]
  Survival: 60%
Avena sterilis [39]
  Survival: 100%
Avena sterilis [40]
  Survival: 83%
Avena sterilis [41]
  Survival: 60%
Avena sterilis [42]
  Survival: 60%
Avena sterilis [43]
  Survival: 80%
Avena sterilis [44]
  Survival: 80%
Avena sterilis [45]
  Survival: 80%
Avena sterilis [46]
  Survival: 90%
Avena sterilis [47]
  Survival: 100%
Avena sterilis [48]
  Survival: 80%
Avena sterilis [49]
  Survival: 60%
Avena sterilis [50]
  Survival: 100%
Avena sterilis [51]
  Survival: 80%
Avena sterilis [52]
  Survival: 80%
Avena sterilis [53]
  Survival: 100%
Avena sterilis [54]
  Survival: 97%
Avena sterilis [55]
  Survival: 93%
Avena sterilis [56]
  Survival: 97%
Avena sterilis [57]
  Survival: 33%
Avena sterilis [58]
  Survival: 97%

## CCOC(=O)[C@@H](C)Oc1ccc(Oc2nc3ccc(Cl)cc3o2)cc1 [FENOXAPROP-P-ETHYL]
Avena sterilis [1]
  Survival: 80%
Avena sterilis [2]
  Survival: 97%
Avena sterilis [3]
  Survival: 100%
Avena sterilis [4]
  Survival: 60%
Avena sterilis [5]
  Survival: 0%
Avena sterilis [6]
  Survival: 77%
Avena sterilis [7]
  Survival: 100%
Avena sterilis [8]
  GR50: 18 gAi/ha
Avena sterilis [9]
  GR50: 31 gAi/ha
Avena sterilis [10]
  GR50: 18 gAi/ha
Avena sterilis [11]
  GR50: 250 gAi/ha
Avena sterilis [12]
  GR50: >2640 gAi/ha
Avena sterilis [13]
  GR50: 303 gAi/ha
Avena sterilis [14]
  GR50: 1440 gAi/ha
Avena sterilis [15]
  GR50: 155 gAi/ha
Avena sterilis [16]
  GR50: 854 gAi/ha
Avena sterilis [17]
  GR50: 913 gAi/ha
Avena sterilis [18]
  GR50: 860 gAi/ha
Avena sterilis [19]
  Survival: 20%
Avena sterilis [20]
  Survival: 70%
Avena sterilis [21]
  Survival: 53%
Avena sterilis [22]
  Survival: 0%
Avena sterilis [23]
  Survival: 40%
Avena sterilis [24]
  Survival: 50%
Avena sterilis [25]
  Survival: 40%
Avena sterilis [26]
  Survival: 20%
Avena sterilis [27]
  Survival: 0%
Avena sterilis [28]
  Survival: 37%
Avena sterilis [29]
  Survival: 20%
Avena sterilis [30]
  Survival: 80%
Avena sterilis [31]
  Survival: 87%
Avena sterilis [32]
  Survival: 83%
Avena sterilis [33]
  Survival: 20%
Avena sterilis [34]
  Survival: 80%
Avena sterilis [35]
  Survival: 20%
Avena sterilis [36]
  Survival: 37%
Avena sterilis [37]
  Survival: 40%
Avena sterilis [38]
  Survival: 23%
Avena sterilis [39]
  Survival: 87%
Avena sterilis [40]
  Survival: 80%
Avena sterilis [41]
  Survival: 63%
Avena sterilis [42]
  Survival: 60%
Avena sterilis [43]
  Survival: 93%
Avena sterilis [44]
  Survival: 40%
Avena sterilis [45]
  Survival: 43%
Avena sterilis [46]
  Survival: 30%
Avena sterilis [47]
  Survival: 100%
Avena sterilis [48]
  Survival: 40%
Avena sterilis [49]
  Survival: 90%
Avena sterilis [50]
  Survival: 100%
Avena sterilis [51]
  Survival: 80%
Avena sterilis [52]
  Survival: 80%
Avena sterilis [53]
  Survival: 97%
Avena sterilis [54]
  Survival: 80%
Avena sterilis [55]
  Survival: 50%
Avena sterilis [56]
  Survival: 100%
Avena sterilis [57]
  Survival: 0%
Avena sterilis [58]
  Survival: 87%

Source: ChEMBL document CHEMBL3046559, “Sterile oat (Avena sterilis L.) cross-resistance profile to ACCase-inhibiting herbicides in Greece” (2012)
